# Experimental data as given in paper PMC9054634 (RSC Advances, 2020).
# Target: E. coli β-glucuronidase (GUS) (Escherichia coli, UniProt P05804)
# Test: pNPG hydrolysis by purified GUS, UPLC-UV, Lineweaver-Burk kinetics
# Assay type: biochemical
# Chain of E. coli β-glucuronidase (GUS) (P05804 whole entry): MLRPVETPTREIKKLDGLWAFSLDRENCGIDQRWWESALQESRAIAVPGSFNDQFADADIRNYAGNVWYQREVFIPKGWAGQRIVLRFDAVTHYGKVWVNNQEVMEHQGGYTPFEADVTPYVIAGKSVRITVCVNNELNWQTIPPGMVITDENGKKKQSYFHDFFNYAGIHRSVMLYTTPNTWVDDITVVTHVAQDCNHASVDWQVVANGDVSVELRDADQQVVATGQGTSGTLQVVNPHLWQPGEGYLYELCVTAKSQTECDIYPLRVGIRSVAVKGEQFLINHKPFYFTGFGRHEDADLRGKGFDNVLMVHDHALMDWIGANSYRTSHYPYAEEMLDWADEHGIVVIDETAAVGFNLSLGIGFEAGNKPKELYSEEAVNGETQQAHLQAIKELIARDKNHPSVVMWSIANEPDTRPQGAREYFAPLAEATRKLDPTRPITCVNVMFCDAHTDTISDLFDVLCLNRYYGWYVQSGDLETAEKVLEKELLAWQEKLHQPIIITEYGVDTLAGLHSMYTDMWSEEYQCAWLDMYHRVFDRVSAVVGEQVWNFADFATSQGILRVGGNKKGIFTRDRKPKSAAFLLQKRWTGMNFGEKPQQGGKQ
row,SMILES,Ki
1,"C[C@]12CC[C@@H]3c4ccc(O)cc4CC[C@H]3[C@@H]1CC[C@@H]2O [E2, Estradiol]",31.4 µM
2,"C=CCc1ccc(O)c(-c2cc(CC=C)ccc2O)c1 [Mag, Magnolol]",16.6 µM
3,"CN1CCN(CCCN2c3ccccc3Sc3ccc(C(F)(F)F)cc32)CC1 [TFP, Trifluoperazine]",56.9 µM
